Literature values in US20030181473A1, “Farnesyl protein transferase inhibitor combinations with taxane compounds” (priority 2000, published 2003).

Experiments:
human tumor cells = details: combination of paclitaxel and the farnesyl transferase inhibitor, in vitro
colon cancer (LoVo) = details: combination of paclitaxel and the farnesyl transferase inhibitor; mouse colon cancer (LoVo) model

Cn1cncc1C(N)(c1ccc(Cl)cc1)c1ccc2c(c1)c(-c1cccc(Cl)c1)cc(=O)n2C (single isomer, unassigned; (+)) [(+)-6-[amino(4-chlorophenyl)(1-methyl-1H-imidazol-5-yl)methyl]-4-(3-chlorophenyl)-1-methyl-2(1H)-quinolinone]
anti-tumor effect of the combination (human tumor cells): additive anti-tumor effect
anti-tumor effect of the combination (colon cancer (LoVo)): additive anti-tumor effect
